Measured values from US20260345593A1, “ORAL FORMULATION OF N-PYRIDINYL ACETAMIDE DERIVATIVE FOR TREATING INTERSTITIAL LUNG DISEASE” (AstraZeneca AB, priority 2022, published 2026).

Columns and labels:
healthy subjects [1] = assay: Example 1 Part 1 (SAD): safety in healthy subjects; assay type: in vivo, human
Protocol: Part 1 comprises a Screening Period of a maximum of 6 weeks. This is followed by a Treatment Period during which subjects are resident at the Clinical Unit from 1 day before investigational medicinal product (IMP) administration (Day −1) until at least 72 hours after IMP administration (Day 4). Subjects receive a single oral dose of AZD5055 or placebo on Day 1. This is followed by a Follow-up Visit within 6±1 day after the IMP dose.
(§1) The study was conducted in healthy male and healthy female subjects of non-childbearing potential with suitable veins for cannulation or repeated venipuncture. […] Also, the subjects were aged 18 to 55 years inclusive for men and women in Part 1 and only men in Part 2. For female subjects in Part 2, the age range was 18 to 49 years inclusive.
(§2) In Part 1 of the study, 3 dose levels of AZD5055 were investigated in 3 cohorts. Each cohort included 8 subjects. Within each cohort, 6 subjects were randomized to receive AZD5055, and 2 subjects were randomized to receive placebo. In Part 2 of the study, 3 dose levels of AZD5055 were investigated in 3 cohorts. In each cohort, 9 subjects were randomized to receive AZD5055, and 3 subjects were randomized to receive placebo.
(§3) Safety endpoints included adverse events; vital signs (supine blood pressure, pulse, respiratory rate, and body temperature); 12-lead ECG, 12-lead dECG, telemetry, physical examinations, clinical laboratory assessments (hematology, clinical chemistry [including serum creatinine and creatine phosphokinase], urinalysis [including protein and albumin creatinine ratios], and cardiac biomarkers [including cardiac Troponin T (cTNT), cardiac Troponin I; (cTNI), and B type natriuretic peptide]), and peripheral oxygen saturation (SpO2).
(§4) All safety data (scheduled and unscheduled) were presented in the data listings. Continuous variables were summarized using descriptive statistics (n, mean, standard deviation, min, median, max) by treatment. Categorical variables were summarized in frequency tables (frequency and proportion) by treatment (both Parts 1 and 2). The analysis of the safety variables was based on the safety analysis set. Adverse events were summarized by System Organ Class (SOC) and Preferred Term (PT) using Medical Dictionary for Regulatory Activities vocabulary. Furthermore, listings of serious adverse events (SAEs) and adverse events leading to the discontinuation of IMP (DAEs) were made and the number of subjects who had any adverse events (AEs), SAEs, DAEs and AEs with severe intensity were summarized. Adverse events that occur before dosing were reported separately. Tabulations and listings of data for ECG, vital signs, AEs, and clinical laboratory tests, measurements were presented.

[2] = oral bioavailability in several animal species; conditions: in vivo, read-out: observed oral bioavailability
porcupine (PORCN) = conditions: statement in words; cited from earlier work
healthy subjects [3] = assay: Example 1 Part 2 (MAD): safety in healthy subjects; assay type: in vivo, human
Protocol: Part 2 comprises a Screening Period of a maximum of 6 weeks. This is followed by a treatment period during which subjects are resident at the Clinical Unit from 1 day before IMP administration (Day −1) until at least 72 hours after the last dose given on Day 16 (Day 19). Subjects are dosed for a total of 15 days and receive a single once daily morning dose of AZD5055 or placebo on Day 1 and on Days 3 through Day 16, with no dosing on Day 2. This is followed up a Follow-up Visit within 6±1 day after the IMP dose, and an additional Follow-up Visit within 29±2 days after the last IMP dose.
For cohorts with QD dosing regimens, the Screening Period is followed by a Treatment Period during which subjects are resident at the Clinical Unit from 1 day before IMP administration (Day −1) until at least 72 hours after the last dose given on Day 16 (Day 19). Subjects are dosed for a total of 15 days, receiving a single QD morning dose of AZD5055 or placebo on Day 1 and on Days 3 through Day 16.
For cohorts with BID dosing regimens, the Screening Period is followed by a Treatment Period during which subjects are resident at the Clinical Unit from 1 day before IMP administration (Day −1) until at least 72 hours after the last dose given on Day 16 (Day 19).
Subjects are dosed for a total of 15 days, receiving a single morning dose of AZD5055 or placebo on Day 1 and Day 16, and repeated BID dosing on Day 3 through Day 15, 12 hours (±30 minutes) apart.
For both cohorts, the Treatment Period is followed by a Follow-up Visit within 6±1 day after the last IMP dose, and an additional Follow-up Visit within 29±2 days after the last IMP dose.
as §1, §2, §3, §4

[4] = tested on: mouse bleomycin in vivo pulmonary fibrosis; conditions: mouse bleomycin in vivo study (Bunyard 2019); cited from earlier work
[5] = Part 1, across all AZD5055 doses
[6] = Part 2, across all AZD5055 doses

Cc1cc(-c2nccc3c2ccn3CC(=O)Nc2ccc(-c3cnccn3)cn2)ccn1 [AZD5055, 2-[4-(2-methyl-4-pyridyl)pyrrolo[3,2-c]pyridin-1-yl]-N-(5-pyrazin-2-yl-2-pyridyl)acetamide]
AEs possibly related to AZD5055 (healthy subjects [1]; Part 1): dizziness, ventricular tachycardia, wheezing, upper abdominal pain, vomiting, and nausea
clinical laboratory results, vital signs, physical examinations, ECGs (healthy subjects [1]; Part 1): No clinically relevant trends
trends for AEs by SOC or PT (healthy subjects [1]; Part 1): no notable trends
subjects with at least one AE (healthy subjects [1]; [5]): 4 subjects
subjects with at least one AE possibly related to AZD5055 (healthy subjects [1]; [5]): 3 subjects
subjects with at least one AE possibly related to AZD5055, percent (healthy subjects [1]; [5]): 16.7%
subjects with at least one AE, percent (healthy subjects [1]; [5]): 22.2%
AE intensity (healthy subjects [1]; Part 1, all AEs): Grade 1 (mild)
AE outcome (healthy subjects [1]; Part 1, all AEs, by end of study): recovered/resolved by the end of the study
SAEs, deaths, AEs leading to discontinuation or withdrawal (healthy subjects [1]; Part 1, all doses): no SAEs, deaths, or AEs leading to discontinuation of AZD5055 or withdrawal from the study
tolerability (healthy subjects [1]; single oral suspension dose 7, 20 and 40 mg, n=6 per dose level): well-tolerated
bioavailability [2]: 40 to 60%
inhibition of the intracellular enzyme porcupine (PORCN) (porcupine (PORCN)): potent, and selective inhibitor
tolerability (healthy subjects [3]; 5, 15 and 20 mg QD, oral suspension): well tolerated at all administered doses
AE intensity, majority of AEs (healthy subjects [3]; Part 2): Grade 1 (mild)
AEs leading to discontinuation of AZD5055 (healthy subjects [3]; Part 2): 3 AEs
SAEs or deaths (healthy subjects [3]; Part 2): no SAEs or deaths
clinical laboratory results, vital signs, physical examinations, ECGs (healthy subjects [3]; Part 2): No clinically relevant trends
trends for AEs by SOC or PT (healthy subjects [3]; Part 2): no notable trends
subjects with AE of ventricular tachycardia/non-sustained ventricular tachycardia, Grade 2, possibly related (healthy subjects [3]; Part 2, 5 mg dose): Two
subjects with AE of coronavirus infection, Grade 1, not considered related (healthy subjects [3]; Part 2, 15 mg dose): One
AEs possibly related to AZD5055, total (healthy subjects [3]; [6]): 7 AEs
subjects with an AE of Grade 2 (moderate) intensity (healthy subjects [3]; [6]): 5 subjects
subjects with at least one AE (healthy subjects [3]; [6]): 21 subjects
AE outcome (healthy subjects [3]; Part 2, all AEs, by end of study): recovered/resolved by the end of the study
possibly related AEs: breath odour (healthy subjects [3]; Part 2, number of AEs): 1
possibly related AEs: dysgeusia (healthy subjects [3]; Part 2, number of AEs): 1
possibly related AEs: headache (healthy subjects [3]; Part 2, number of AEs): 3
possibly related AEs: photophobia (healthy subjects [3]; Part 2, number of AEs): 1
possibly related AEs: ventricular tachycardia (healthy subjects [3]; Part 2, number of AEs): 2
pulmonary fibrosis [4]: reduced pulmonary fibrosis
